Results from paper PMC12126525, “Mechanism of ATP hydrolysis in the Hsp70 BiP nucleotide-binding domain” (Nature Communications, 2025).
Several values for one entry are separate records, joined by “and”; a condition that tells them apart may be missing. Equal entries are not always repeated.

Key:
BiP = details: cited from earlier work
BiP NBD [1] = biological target: T1, BiP NBD (Homo sapiens, UniProt P11021); assay: Single turn-over assay (anion exchange quantification of ATP/ADP); format: biochemical; design: His6 (N, cleaved yes); made in house; host or cells: E. coli BL21-(DE3)-Lemo, pET28a vector
T1 sequence (P11021 19-406): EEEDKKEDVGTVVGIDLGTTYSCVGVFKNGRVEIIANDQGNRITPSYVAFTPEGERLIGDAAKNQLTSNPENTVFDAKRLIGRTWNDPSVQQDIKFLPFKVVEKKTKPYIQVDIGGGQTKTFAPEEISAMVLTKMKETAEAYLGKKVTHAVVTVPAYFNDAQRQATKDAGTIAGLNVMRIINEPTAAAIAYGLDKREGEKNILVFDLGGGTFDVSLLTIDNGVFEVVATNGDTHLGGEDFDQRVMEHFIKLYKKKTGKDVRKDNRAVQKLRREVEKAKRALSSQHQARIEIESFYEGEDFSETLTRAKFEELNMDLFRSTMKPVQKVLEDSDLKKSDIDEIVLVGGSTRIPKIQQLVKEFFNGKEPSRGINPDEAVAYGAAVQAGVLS
Procedure: We next set out to benchmark these kinetic parameters to independently measured values. Out of the 11 free parameters of the functional cycle, 3 parameters can be commonly accessed with classical experiments (kcat, koff2 and koff5 ). We benchmarked kcat with standard single-turn over experiments[44],[46]. For these experiments, the NBD·ATP complex is initially formed by incubation of an excess of ATP with BiP NBD at 4 °C. At this temperature, it is generally assumed that the hydrolysis rate can be neglected. Unbound nucleotides were removed by gel filtration and the purified NBD·ATP complex was flash frozen. The complex was then incubated at 37 °C for variable time, after which the reaction was quenched by addition of HCl. This step unfolds the NBD, thus immediately stopping the reaction and releasing all educts and products into solution. From the resulting samples, the [ATP]/[ADP] ratio was determined by anion exchange chromatography.
The single turnover experiment starts from a batch of stoichiometrically assembled NBD^ATP complex. ATP hydrolysis and ATP dissociation occur on parallel kinetic pathways, according to Eqs. (1) and (2). At very low protein concentrations [NBD^ATP]≪KD1 , rebinding of ATP after dissociation, as well as the buildup of the products ADP and Pi, can be neglected and the observed ATP decay follows the analytical equation35 ATP/ATP0=koff1/kcat*+kcat/kcat*e^−kcat*t with36 kcat*=kcat+koff1
At proteins concentrations [NBD^ATP]≳KD1 , as it was used in our experiments, ATP rebinding after dissociation cannot be neglected, which is competitive with the product ADP that builds up over time. […]
The ATPase activity of BiP NBD was determined under single-turnover conditions as previously described with minor modifications of the protocol. The main modification was to replace the radioactivity-based detection by a label free anion-exchange based quantification. […] The relative ATP/ADP ratio was determined using an anion chromatography-based assay.

BiP NBD [2] = biological target: T1, BiP NBD; assay: In-cyclo NMR with ATP regeneration (E1) and phosphate removal (E2): hydrolysis rate, state populations, occupancy times; format: biochemical; design: His6 (N, cleaved yes); made in house; host or cells: E. coli BL21-(DE3)-Lemo, pET28a vector; details: for khydr: Fig 3 f source data: replicates [1]-[3] and average; for cycle timing: Fig 4f source data: replicates [1]-[3] and average
Excerpt: In order to create a stable steady-state condition, we implemented two enzymatic systems inside the NMR tube to convert ADP into ATP and to remove the free phosphate, respectively. The first enzyme (E1) is pyruvate kinase, at catalytic amounts, which combines phosphoenol pyruvate (PEP) and ADP to form ATP (Fig. 3a). […] The second enzyme (E2) is sucrose phosphorylase, at catalytic amounts, which catalyzes the conversion of sucrose and phosphate into α-D-glucose-1-phosphate and D-fructose. […] To distinguish this experiment from equilibrium experiments, and highlight the unique setup to control ATP, ADP and Pi levels simultaneously, we refer to this setup as the “in-cyclo” NMR experiment.
We then set out to determine the kinetic parameters of the functional cycle. The NMR signal intensities of each of the three detected states are proportional to their population in the steady state. We integrated 51 non-overlapping independent methyl groups to obtain the population ratio pDtotal/pT, including 7 non-overlapping independent methyl groups to obtain the subpopulation ratio pD·Pi/pD.
The macroscopic hydrolysis rate khydr is experimentally determined from monitoring the pyruvate production. From there, the reaction flux f of the functional cycle results as19 f=khydrNBD0 The inverse of the hydrolysis rate is the average length of the functional cycle T.20 T=khydr−1 The flux is maintained along the cycle, resulting in the equations21 f=kcatNBD^ATP 22 f=koff4+koff5⋅NBD^ADP⋅Pi 23 f=koff2NBD^ADP+koff3NBD^Pi 24 f=kon1NBD^apoATP−koff1NBD^ATP 25 koff2NBD^ADP=koff4NBD^ADP⋅Pi
All in-cyclo NMR experiments were recorded with BiP NBD samples [U-^2H, ^15N, ^12C], Met-[^13CH3]^ε, Val-[^13CH3/^12C^2H3]^cγ1/cγ2, Ile-[^13CH3]^δ1 in NMR buffer (25 mM HEPES, pH 7.5, 150 mM KCl and 10 mM MgCl2) at a concentration of BiP NBD 100 μM. The in-cyclo ATP regeneration system was composed of 5 units of pyruvate kinase (E1) from rabbit muscle ( ≈ 200 nM; Sigma-Aldrich) and the concentration of phosphoenolpyruvate (PEP- Sigma-Aldrich) was adjusted to maintain the system active for at least four hours ([PEP] = 10–100 mM). The in-cyclo phosphate removal system was composed of 5 units of recombinant sucrose phosphorylase (E2) ( ≈ 500 nM; Sigma-Aldrich) and the concentration of sucrose (Sigma-Aldrich) was adjusted to maintain the system active for at least four hours ([Sucrose] = 10–100 mM). This experimental setup was modified as described in the text by selectively including E1 and/or E2 depending on the purpose of the experiments. All the experiments were recorded at minimum as experimental triplicates.
The in-cyclo experiment was initiated by the addition of 5 mM ATP (Sigma-Aldrich) and allowed to equilibrate at a temperature of 37 °C for 5 min in the NMR spectrometer. After the equilibration time 2D [^13C,^1H]-HMQC spectra were recorded in interleaved mode with 1D ^1H NMR spectra. […] The same setup was used for the alternative experiments by including or excluding E1 and/or E2.

| kcat* (single turn-over) (BiP NBD [1]; 37 °C, monoexponential fit) | kcat single turn-over average (BiP NBD [1]; Supplementary Fig 11b) [s⁻¹] | ATP consumption (BiP NBD [2]; 100 μM BiP NBD, 5 mM ATP, 37 °C) [mM/min] | khydr (BiP NBD [2]; mean) [min⁻¹] | cycle timing (BiP NBD [2]) | cycle timing (BiP NBD [2]; mean) [s] | catalytic ATP hydrolysis rate kcat = tT^−1 (BiP NBD [2]; from occupancy time of the T state) [s⁻¹] | average length of the functional cycle T = khydr^−1 (BiP NBD [2]; in-cyclo, no calcium) [s] | macroscopic hydrolysis rate khydr (BiP NBD [2]; in-cyclo, no calcium, 37 °C) [min⁻¹] | Structure (SMILES) | increase of the MABA-ADP-bound lifetime (BiP; concentration-dependent) | decrease of the ATP hydrolysis rate of BiP (BiP; physiological calcium levels compared to no calcium) [fold] | kcat single turn-over (BiP NBD [1]; Supplementary Fig 11b, replicates [1]-[6]) | khydr (BiP NBD [2]) |
| --- | --- | --- | --- | --- | --- | --- | --- | --- | --- | --- | --- | --- | --- |
|  |  |  |  |  |  |  |  |  | [Ca+2] [calcium] | up to 4 fold | 2 |  |  |
| 0.071 s⁻¹ and 0.071 ± 0.02 s⁻¹ | 0.071 | 0.15 ± 0.01 | 1.471 | 42.34 s and 39.82 s and 40.31 s | 41 | 0.067 | 41 ± 2 | 1.47 ± 0.05 | Nc1ncnc2c1ncn2[C@@H]1O[C@H](COP(=O)(O)OP(=O)(O)OP(=O)(O)O)[C@@H](O)[C@H]1O [ATP] |  |  | 0.085 s⁻¹ and 0.070 s⁻¹ and 0.057 s⁻¹ and 0.075 s⁻¹ and 0.073 s⁻¹ | 1.417 min⁻¹ and 1.507 min⁻¹ and 1.488 min⁻¹ |
